Results published in patent US8557796B2, “Substituted 1-oxa-2,8-diaza-spiro [4,5] dec-2-ene derivatives and related treatment methods” (Gruenenthal GmbH, priority 2001, dated 2013).

biological target: T1, NA transporter (Rattus norvegicus, UniProt Q9WTR4); experiment: Noradrenalin uptake inhibition (NA-uptake) in synaptosomes; assay type: biochemical; settings: rat hypothalamus synaptosomes
T1 construct: synaptosomes from rat brain regions were freshly isolated; from tissue; host or cells: P2 synaptosome fraction from hypothalamus of male rat brain
T1 sequence (Q9WTR4 1-597): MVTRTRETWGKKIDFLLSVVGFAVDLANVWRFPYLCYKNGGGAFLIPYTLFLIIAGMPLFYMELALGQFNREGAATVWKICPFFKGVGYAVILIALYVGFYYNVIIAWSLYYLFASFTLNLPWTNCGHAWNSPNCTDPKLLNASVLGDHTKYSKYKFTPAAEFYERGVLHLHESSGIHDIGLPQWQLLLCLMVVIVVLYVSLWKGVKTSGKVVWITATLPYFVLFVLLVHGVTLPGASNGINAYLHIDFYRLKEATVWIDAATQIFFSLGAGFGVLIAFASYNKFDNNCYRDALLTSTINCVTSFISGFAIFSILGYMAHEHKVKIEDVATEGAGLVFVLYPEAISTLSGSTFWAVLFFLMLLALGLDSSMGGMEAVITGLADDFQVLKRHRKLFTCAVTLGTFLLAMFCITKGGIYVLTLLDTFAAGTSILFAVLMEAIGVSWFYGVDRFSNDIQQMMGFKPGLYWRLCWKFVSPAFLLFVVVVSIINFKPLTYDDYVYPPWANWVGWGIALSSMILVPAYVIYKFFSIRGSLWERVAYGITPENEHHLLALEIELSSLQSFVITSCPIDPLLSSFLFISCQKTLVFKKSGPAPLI
From the text: Tests on Noradrenalin Uptake Inhibition (NA-Uptake Inhibition)
In order to be able to carry out these in vitro studies, synaptosomes from rat brain regions were freshly isolated.

Row | SMILES | NA-uptake, 10 μM, % inhibition | inhibition at 10 µM
1 | COC(=O)C(Cc1ccc(Cl)cc1)NC(=O)C1=NOC2(CCN(S(=O)(=O)c3ccc(OC)cc3)CC2)C1 (stereo not shown) [Example 200] | 43% | 
2 | O=C(NCc1cccs1)C1=NOC2(CCN(C(=O)C=Cc3ccccc3)CC2)C1 [Example 106] | 47% | 
3 | CN(CCCNC(=O)C1=NOC2(CCN(S(=O)(=O)c3ccc(Cl)s3)CC2)C1)c1ccccc1 [Example 89] | 68% | 
4 | CCOC(=O)C1CCCCN1C(=O)C1=NOC2(CCN(C(=O)c3cc(C(C)(C)C)oc3C)CC2)C1 (stereo not shown) [Example 179, 1-[8-(5-tert-butyl-2-methyl-furan-3-carbonyl)-1-oxa-2,8-diaza-spiro[4,5]dec-2-ene-3-carbonyl]-piperidine-2-carboxylic acid ethyl ester] |  | 49%
5 | CN(C)S(=O)(=O)N1CCC2(CC1)CC(C(=O)N1CCN(Cc3ccc(C(C)(C)C)cc3)CC1)=NO2 [Example 189, 3-[4-(4-tert-butyl-benzyl)-piperazine-1-carbonyl]-1-oxa-2,8-diaza-spiro[4,5]dec-2-ene-8-sulphonic acid dimethylamide] |  | 45%
6 | CC(C)CNC(=O)C1=NOC2(CCN(C(=O)c3ccc(F)cc3)CC2)C1 [Example 137, 8-(4-fluoro-benzoyl)-1-oxa-2,8-diaza-spiro[4,5]dec-2-ene-3-carboxylic acid isobutyl-amide] |  | 49%
7 | O=C(NCc1cccs1)C1=NOC2(CCN(S(=O)(=O)c3ccc([N+](=O)[O-])cc3)CC2)C1 [Example 38, 8-(4-nitro-benzenesulphonyl)-1-oxa-2,8-diaza-spiro[4,5]dec-2-ene-3-carboxylic acid (thiophen-2-ylmethyl)-amide] |  | 44%
8 | O=C(NCc1cccc2ccccc12)C1=NOC2(CCN(S(=O)(=O)c3ccc(Cl)s3)CC2)C1 [Example 128, 8-(5-chloro-thiophene-2-sulphonyl)-1-oxa-2,8-diaza-spiro[4,5]dec-2-ene-3-carboxylic acid naphthalen-l-ylmethyl-amide] | 45% | 
9 | Cc1onc(-c2c(Cl)cccc2Cl)c1C(=O)N1CCC2(CC1)CC(C(=O)NCc1cccs1)=NO2 [Example 197, 8-[3-(2,6-dichloro-phenyl)-5-methyl-isoxazole-4-carbonyl]-1-oxa-2,8-diaza-spiro[4,5]dec-2-ene-3-carboxylic acid (thiophen-2-ylmethyl)-amide] |  | 41%
10 | CN(C)S(=O)(=O)N1CCC2(CC1)CC(C(=O)NC1CCCC1OCc1ccccc1)=NO2 (stereo not shown) [Example 163, 8-dimethylsulphamoyl-1-oxa-2,8-diaza-spiro[4,5]dec-2-ene-3-acarboxylic cid (2-benzyloxy-cyclopentyl)-amide] | 62% | 
11 | O=C(NCc1ccccc1)C1=NOC2(CCN(C(=O)c3cccnc3Oc3ccccc3)CC2)C1 [Example 203, 8-(2-phenoxy-pyridine-3-carbonyl)-1-oxa-2,8-diaza-spiro[4,5]dec-2-ene-3-carboxylic acid benzylamide] |  | 58%
12 | CN(C)S(=O)(=O)N1CCC2(CC1)CC(C(=O)NCCc1ccccc1)=NO2 [Example 7, 8-dimethylsulphamoyl-1-oxa-2,8-diaza-spiro[4,5]dec-2-ene-3-carboxylic acid phenethyl-amide] |  | 50%
13 | COc1ccc(S(=O)(=O)N2CCC3(CC2)CC(C(=O)NC2CC2c2ccccc2)=NO3)cc1 (stereo not shown) [Example 182, 8-(4-methoxy-benzenesulphonyl)-1-oxa-2,8-diaza-spiro[4,5]dec-2-ene-3-carboxylic acid (2-phenyl-cyclopropyl)-amide] |  | 73%
14 | CN(C)CCNC(=O)C1=NOC2(CCN(S(=O)(=O)c3ccccc3)CC2)C1 [Example 13, 8-benzenesulphonyl-1-oxa-2,8-diaza-spiro[4,5]dec-2-ene-3-carboxylic acid (2-dimethylamino-ethyl)-amide] |  | 43%
15 | O=C(NC1CCCC1)C1=NOC2(CCN(C(=O)c3ccccc3COC(=O)c3ccccc3)CC2)C1 [Example 188] | 49% | 
16 | O=C(NCc1cccs1)C1=NOC2(CCN(C(=O)c3cccc(Cl)c3)CC2)C1 [Example 208] | 52% | 
17 | O=C(NC1CCCC1)C1=NOC2(CCN(C(=O)c3cccnc3Oc3ccccc3)CC2)C1 [Example 153, 8-(2-phenoxy-pyridine-3-carbonyl)-1-oxa-2,8-diaza-spiro[4,5]dec-2-ene-3-carboxylic acid cyclopentylamide] |  | 45%
18 | O=C(C1=NOC2(CCN(S(=O)(=O)c3ccc(F)cc3)CC2)C1)N1CCN(C2CCCCCC2)CC1 [Example 218] | 44% | 
19 | CN(C)S(=O)(=O)N1CCC2(CC1)CC(C(=O)N1CCN(CCCc3ccccc3)CC1)=NO2 [Example 80, 3-[4-(3-phenyl-propyl)-piperazine-1-carbonyl]-1-oxa-2,8-diaza-spiro[4,5]dec-2-ene-8-sulphonic acid dimethylamide] |  | 60%

Row | SMILES | NA-uptake, 10 μM, % inhibition | inhibition at 10 µM
20 | CN(C)S(=O)(=O)N1CCC2(CC1)CC(C(=O)NC(Cc1ccccc1)C(=O)OC(C)(C)C)=NO2 (stereo not shown) [Example 139, 2-[(8-dimethylsulphamoyl-1-oxa-2,8-diaza-spiro[4,5]dec-2-ene-3-carbonyl)-amino]-3-phenyl-propionic acid tert-butyl ester] |  | 51%
21 | O=C(NCc1cccs1)C1=NOC2(CCN(C(=O)COc3cccc(Cl)c3)CC2)C1 [Example 96, 8-[2-(3-chloro-phenoxy)-acetyl]-1-oxa-2,8-diaza-spiro[4,5]dec-2-ene-3-carboxylic acid (thiophen-2-ylmethyl)-amide] |  | 49%
22 | O=C(NCC1CC1)C1=NOC2(CCN(C(=O)CCCOc3ccccc3)CC2)C1 [Example 118, 8-(4-phenoxy-butyryl)-1-oxa-2,8-diaza-spiro[4,5]dec-2-ene-3-carboxylic acid cyclopropylmethyl-amide] |  | 46%
23 | CC(C)CC(NC(=O)C1=NOC2(CCN(S(=O)(=O)c3cccs3)CC2)C1)C(=O)OC(C)(C)C (stereo not shown) [Example 145, 4-methyl-2-{[8-(thiophene-2-sulphonyl)-1-oxa-2,8-diaza-spiro[4,5]dec-2-ene-3-carbonyl]-amino]-pentanoic acid tert-butyl ester] |  | 46%
24 | O=C(C1=NOC2(CCN(S(=O)(=O)c3ccc(OC(F)(F)F)cc3)CC2)C1)N(CCc1ccccc1)Cc1ccccc1 [Example 97, 8-(4-trifluoromethoxy-benzenesulphonyl)-1-oxa-2,8-diaza-spiro[4,5]dec-2-ene-3-carboxylic acid benzyl-phenethyl-amide] |  | 83%
25 | O=C(NCc1cccs1)C1=NOC2(CCN(C(=O)c3ccc(F)c(Cl)c3)CC2)C1 [Example 184, 8-(3-chloro-4-fluorobenzoyl)-1-oxa-2,8-diaza-spiro[4,5]dec-2-ene-3-carboxylic acid (thiophen-2-ylmethyl)-amide] |  | 62%
26 | Cc1ccc(S(=O)(=O)N2CCC3(CC2)CC(C(=O)NC2CC2c2ccccc2)=NO3)cc1 (stereo not shown) [Example 75, 8-(toluene-4-sulphonyl)-1-oxa-2,8-diaza-spiro[4,5]dec-2-ene-3-carboxylic acid (2-phenyl-cyclopropyl)-amide] |  | 65%
27 | O=C(NC1CCCC1OCc1ccccc1)C1=NOC2(CCN(S(=O)(=O)c3ccc(F)cc3)CC2)C1 (stereo not shown) [Example 199] | 78% | 
28 | COC(=O)c1ccccc1S(=O)(=O)N1CCC2(CC1)CC(C(=O)NCC(C)C)=NO2 [Example 138, 2-(3-isobutylcarbamoyl-1-oxa-2,8-diaza-spiro[4,5]dec-2-ene-8-sulphonyl)-benzoic acid methyl ester] |  | 49%
29 | O=C(NCC1CC1)C1=NOC2(CCN(C(=O)c3ccc(C(F)(F)F)cc3)CC2)C1 [Example 107, 8-(4-trifluoromethyl-benzoyl)-1-oxa-2,8-diaza-spiro[4,5]dec-2-ene-3-carboxylic acid cyclopropylmethyl-amide] |  | 42%
30 | O=C(NCc1ccccc1)C1=NOC2(CCN(C(=O)c3ccc(F)c(Cl)c3)CC2)C1 [Example 205, 8-(3-chloro-4-fluorobenzoyl)-1-oxa-2,8-diaza-spiro[4,5]dec-2-ene-3-carboxylic acid benzylamide] |  | 46%
31 | COC(=O)CCC(=O)N1CCC2(CC1)CC(C(=O)NCc1cccs1)=NO2 [Example 114, 4-oxo-4-{3-[(thiophen-2-ylmethyl)-carbamoyl]-1-oxa-2,8-diaza-spiro[4,5]dec-2-ene-8-yl}-butyric acid methyl ester] |  | 42%
32 | O=C(NCCc1cccc(F)c1)C1=NOC2(CCN(S(=O)(=O)Cc3ccccc3)CC2)C1 [Example 78, 8-phenylmethanesulphonyl-1-oxa-2,8-diaza-spiro[4,5]dec-2-ene-3-carboxylic acid [2-(3-fluorophenyl)-ethyl]-amide] |  | 42%
33 | O=C(NCc1ccc2c(c1)OCO2)C1=NOC2(CCN(S(=O)(=O)c3ccc(Cl)s3)CC2)C1 [Example 30, 8-(5-chloro-thiophene-2-sulphonyl)-1-oxa-2,8-diaza-spiro[4,5]dec-2-ene-3-carboxylic acid (benzo[1,3]dioxol-5-ylmethyl)-amide] |  | 48%
34 | Cc1ccccc1N1CCN(C(=O)C2=NOC3(CCN(S(=O)(=O)Cc4ccccc4)CC3)C2)CC1 [Example 133, (8-phenylmethanesulphonyl-1-oxa-2,8-diaza-spiro[4,5]dec-2-en-3-yl)-(4-o-tolyl-piperazin-l-yl)-methanone] | 48% | 
35 | O=C(NCc1ccccc1)C1=NOC2(CCN(S(=O)(=O)c3cccs3)CC2)C1 [Example 136, 8-(thiophene-2-sulphonyl)-1-oxa-2,8-diaza-spiro[4,5]dec-2-ene-3-carboxylic acid benzylamide] |  | 53%
36 | O=C(Nc1ccccc1)C1=NOC2(CCN(C(=O)c3cccc(Cl)c3Cl)CC2)C1 [Example 172, 8-(2,3-dichloro-benzoyl)-1-oxa-2,8-diaza-spiro[4,5]dec-2-ene-3-carboxylic acid phenylamide] |  | 41%
37 | Cc1cc(C(=O)N2CCC3(CC2)CC(C(=O)NCc2ccccc2)=NO3)c(C)o1 [Example 217, 8-(2,5-dimethyl-furan-3-carbonyl)-1-oxa-2,8-diaza-spiro[4,5]dec-2-ene-3-carboxylic acid benzylamide] |  | 40%
